Measurements reported in patent US10538534B2 (Colorado State University Research Foundation, priority 2015, dated 2020).
Like-named read-outs stand apart in the source and are kept apart here.

Tests used:
[1] = target: HDAC1 (Homo sapiens, UniProt Q13547); test: Biochemical profiling for HDACi activity, miniaturized assay platform (HDAC1-9)
[2] = test system: tumor; test: In vivo tumor growth inhibition study
Text: Although the distribution effect of these compounds is similar, there is a notable difference in drug exposure of ˜30 percent for the peptide isostere.

[3] = target: HDAC2 (Homo sapiens, UniProt Q92769); test: Biochemical profiling for HDACi activity, miniaturized assay platform (HDAC1-9)
[4] = target: T1, HDAC8 (Homo sapiens, UniProt Q9BY41); test: as above; conditions: compared with IC50 for HDACs 1-3
T1 sequence (Q9BY41 1-377): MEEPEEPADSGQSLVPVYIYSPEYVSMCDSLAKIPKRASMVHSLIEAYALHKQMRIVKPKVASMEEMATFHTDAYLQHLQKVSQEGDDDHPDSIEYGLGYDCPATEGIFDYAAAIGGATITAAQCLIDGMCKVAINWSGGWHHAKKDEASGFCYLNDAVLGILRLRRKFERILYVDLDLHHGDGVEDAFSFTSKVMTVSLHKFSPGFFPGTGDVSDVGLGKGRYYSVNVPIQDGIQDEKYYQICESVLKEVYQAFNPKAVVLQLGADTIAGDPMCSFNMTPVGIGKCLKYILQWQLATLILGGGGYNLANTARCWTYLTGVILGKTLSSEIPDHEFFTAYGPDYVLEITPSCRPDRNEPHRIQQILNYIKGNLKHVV

[5] = Solubility in solvents
Protocol: Trityl thiol was dissolved in 0.6 mL of DCM and cooled to 0° C. TFA (30 μL) and iPr3SiH (2.0 μL, 10 μmol) were added to the solution at 0° C. The bath was removed and the reaction was allowed to stir at room temperature for 1 h. Solvent was removed by argon flow and the residue 14 is taken crude for biological evaluation.

[6] = test system: NOTCH1 mutated T-ALL cells (DND41); test: ATP-based cell viability assay (CellTiter-Glo) in T-ALL cells; conditions: DND41, 72, 144, 216 hours, 10 μM to 0.078 μM, FIGS. 11-13
Protocol: (§1) To test the hypothesis that largazole folate-conjugated small molecules target T-ALL, dose-ranging ATP content assays were performed. […] Next, an ATP-based assay (CellTiter-Glo, Promega®) was used to calculate the half-maximal inhibitory concentration (IC50) of cell viability. Graphs were plotted as a fraction of cells alive (y-axis) using Prism GraphPad 6 software and drug doses expressed as Log [μM] (x-axis).

[7] = test system: NOTCH1 mutated T-ALL cells (ALL/SIL); test: as above; conditions: ALL/SIL, 72, 144, 216 hours, 10 μM to 0.078 μM, FIGS. 14-16
Protocol: as §1

[8] = test system: Class I HDAC; test: HDAC biochemical selectivity profiling; conditions: FIG. 1B, versus free Largazole-thiol
[9] = test system: HDACs1, 2 & 3; test: Affinity precipitation from HeLa Nuclear Extract with streptavidin beads, immunoblot; format: binding; conditions: 1 μM in 200 μL HeLa Nuclear Extract, 16 hr incubation, FIG. 1C
Protocol: 1 μM Largazole-Btn (54) in 200 μL of HeLa Nuclear Extract […] of streptavidin beads added after 16 hr incubation with compound.

Sequence of HDAC2 (Q92769 whole entry): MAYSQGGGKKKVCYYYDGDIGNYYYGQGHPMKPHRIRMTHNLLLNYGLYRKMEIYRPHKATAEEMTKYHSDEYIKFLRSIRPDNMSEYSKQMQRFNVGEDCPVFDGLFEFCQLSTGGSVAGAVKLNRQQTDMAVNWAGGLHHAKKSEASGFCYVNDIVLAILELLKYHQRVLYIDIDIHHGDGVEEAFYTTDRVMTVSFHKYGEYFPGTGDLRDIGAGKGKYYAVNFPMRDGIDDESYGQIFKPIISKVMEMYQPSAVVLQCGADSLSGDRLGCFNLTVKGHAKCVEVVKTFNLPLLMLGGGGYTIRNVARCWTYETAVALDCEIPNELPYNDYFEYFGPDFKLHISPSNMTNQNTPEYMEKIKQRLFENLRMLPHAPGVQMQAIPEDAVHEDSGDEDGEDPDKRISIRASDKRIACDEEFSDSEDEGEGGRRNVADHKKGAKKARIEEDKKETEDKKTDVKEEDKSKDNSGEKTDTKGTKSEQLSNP
Sequence of HDAC1 (Q13547 whole entry): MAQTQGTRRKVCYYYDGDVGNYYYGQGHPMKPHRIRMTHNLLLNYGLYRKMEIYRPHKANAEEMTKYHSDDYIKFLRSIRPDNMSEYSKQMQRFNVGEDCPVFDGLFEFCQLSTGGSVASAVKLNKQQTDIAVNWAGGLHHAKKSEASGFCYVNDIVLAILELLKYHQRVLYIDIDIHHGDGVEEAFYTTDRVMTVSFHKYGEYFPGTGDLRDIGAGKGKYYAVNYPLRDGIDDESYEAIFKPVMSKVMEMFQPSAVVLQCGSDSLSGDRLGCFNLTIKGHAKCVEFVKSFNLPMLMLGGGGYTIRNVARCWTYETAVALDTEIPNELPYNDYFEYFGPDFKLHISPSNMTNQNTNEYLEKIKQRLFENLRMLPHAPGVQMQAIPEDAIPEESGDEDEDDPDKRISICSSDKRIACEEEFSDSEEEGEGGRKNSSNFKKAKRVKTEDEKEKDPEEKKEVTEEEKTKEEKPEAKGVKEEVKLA

**Q.** Which IC50 [1] does the source give for CCCCCCCC(=O)SCC/C=C/[C@@H]1CC(=O)NCc2nc(cs2)C2=N[C@@](C)(CS2)C(=O)N[C@@H](C(C)C)C(=O)O1 [Largazole] here?
**A.** Its IC50 is less than 20 nM.

**Q.** What about the tumor growth inhibition [2] of the same compound?
**A.** The tumor growth inhibition was 34%.

**Q.** And the IC50 [3]?
**A.** Its IC50 is less than 20 nM.

**Q.** What about the “IC50 HDAC8” value [4] of the same compound?
**A.** The value was “much higher”.

**Q.** With CCCCCCCC(=O)SCC/C=C/C1CC(=O)NCc2nc(c(-c3ccc(COC(=O)CC[C@H](NC(=O)c4ccc(NCc5cnc6nc(N)[nH]c(=O)c6n5)cc4)C(=O)O)cc3)s2)C2=N[C@@](C)(CS2)C(=O)NC(C(C)C)C(=O)N1 (some centres unmarked) as the compound, how does the “solubility (solvents)” value ([5]; FIG. 10 legend) read?
**A.** The value was “soluble in MeOH, CHCl3, DMSO”.

**Q.** And the cell viability [6]?
**A.** The cell viability was “loss of cellular viability”.

**Q.** What about the cell viability [7] of the same compound?
**A.** The cell viability was “loss of cellular viability”.

**Q.** For CC(C)[C@@H]1NC(=O)[C@]2(C)CSC(=N2)c2nc(sc2-c2ccc(CNC(=O)CCCCCNC(=O)CCCCCNC(=O)CCCCC3SC[C@@H]4NC(=O)N[C@H]34)cc2)CNC(=O)CC(/C=C/CCS)OC1=O (some centres unmarked) [Largazole-Biotin], which biochemical selectivity [8] is on record?
**A.** The biochemical selectivity was “compares favorably to free Largazole-thiol”.

**Q.** What about the “affinity precipitation of HDACs by immunoblot” value [9] of the same compound?
**A.** Its value is “affinity precipitation of HDACs1, 2 & 3”.

**Q.** Which tumor growth inhibition [2] does the source give for largazole thiol here?
**A.** The tumor growth inhibition was 44%.

**Q.** Which “solubility (solvents)” value [5] does the source give for CCCCCCCC(=O)SCC/C=C/C1CC(=O)NCc2nc(c(-c3ccc(CNC(=O)CC[C@H](NC(=O)c4ccc(NCc5cnc6nc(N)[nH]c(=O)c6n5)cc4)C(=O)O)cc3)s2)C2=N[C@@](C)(CS2)C(=O)NC(C(C)C)C(=O)N1 (some centres unmarked) here?
**A.** The value was “soluble in mixture of CH2Cl2-MeOH, or DMSO”.

**Q.** Which results are given for CC(C)[C@@H]1NC(=O)[C@]2(C)CSC(=N2)c2nc(sc2-c2ccc(CNC(=O)CC[C@H](NC(=O)c3ccc(NCc4cnc5nc(N)[nH]c(=O)c5n4)cc3)C(=O)O)cc2)CNC(=O)CC(/C=C/CCS)NC1=O (some centres unmarked) [Compound 14]?
**A.** solubility in organic solvent ([5]; crude product): very poor; solubility in water ([5]; crude product): not soluble in water

**Q.** With CC(C)C1NC(=O)[C@]2(C)CSC(=N2)c2nc(sc2-c2ccc(CNC(=O)CC[C@H](NC(=O)c3ccc(NCc4cnc5nc(N)[nH]c(=O)c5n4)cc3)C(=O)O)cc2)CNC(=O)CC(/C=C/CCS)NC1=O (some centres unmarked) as the compound, how does the “solubility (solvents)” value ([5]; FIG. 10 legend) read?
**A.** Its value is “only soluble in DMSO”.
